The text below walks through data of PubChem BioAssay AID2060508 (Molecular Pharmacology Branch, DTP, NCI, 2025).

The viability, T/C is the ratio of treated to control.
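Also: spheroids exposed to compounds for seven days; 100% = DMSO vehicle control viability.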

The test system of the first assay is 454973-116-R2-J3-PDC spheroids, viability, % test/control. Nature of the assay: Anticancer human tumor 454973-116-R2-J3-PDC patient-derived pancreatic carcinoma cell line growth inhibition [GQUAD]. The settings on record: second compound 3.16 µM; first compound 0.1 µM; active compounds read low; spheroids with HUVEC and MSC. The essentials:
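Tumor cells were grown as complex spheroids with HUVEC endothelial cells and mesenchymal stem cells as stroma. G-quadruplex stabilizers were combined with targeted agents over half-log dilutions from near the clinical Cmax, or from 10 microM.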
Regarding `CC1COCCN1c1cc(C2(O)CC3CCC(C2)O3)c2cnn(-c3ccn[nH]3)c2n1` (configuration not stated) + CN(C)c1ccc(Nc2c3ccc(NC(=O)CCN4CCCC4)cc3nc3cc(NC(=O)CCN4CCCC4)ccc23)cc1, the viability, T/C was 63.2%.

Consider `COc1ccc([C@@H](O)c2cc(-c3ncnc4cc(N5CCOCC5)ccc34)c(F)cc2Cl)nn1` + CN(C)c1ccc(Nc2c3ccc(NC(=O)CCN4CCCC4)cc3nc3cc(NC(=O)CCN4CCCC4)ccc23)cc1, for which the viability, T/C is 91.2%.

Staying with this assay, now noted: second compound 3.16 µM; first compound 0.316 µM; active compounds read low; spheroids with HUVEC and MSC.
With `CC(C)n1c(=O)n(C)c2cnc3cc(F)c(-c4ccc(OCCCN5CCCCC5)nc4)cc3c21` + CN(C)c1ccc(Nc2c3ccc(NC(=O)CCN4CCCC4)cc3nc3cc(NC(=O)CCN4CCCC4)ccc23)cc1, the viability, T/C is 95.9%.

Regarding `CC1COCCN1c1cc(-c2ccnn2C)c2ccnc(-c3ccn[nH]3)c2n1` (configuration not stated) + CN(C)c1ccc(Nc2c3ccc(NC(=O)CCN4CCCC4)cc3nc3cc(NC(=O)CCN4CCCC4)ccc23)cc1, the viability, T/C was 38%.

Take `CC1COCCN1c1cc(C2(O)CC3CCC(C2)O3)c2cnn(-c3ccn[nH]3)c2n1` (configuration not stated) + CN(C)c1ccc(Nc2c3ccc(NC(=O)CCN4CCCC4)cc3nc3cc(NC(=O)CCN4CCCC4)ccc23)cc1: the viability, T/C was 33.6%.

Take `COc1ccc([C@@H](O)c2cc(-c3ncnc4cc(N5CCOCC5)ccc34)c(F)cc2Cl)nn1` + CN(C)c1ccc(Nc2c3ccc(NC(=O)CCN4CCCC4)cc3nc3cc(NC(=O)CCN4CCCC4)ccc23)cc1: the viability, T/C is 85.2%.

Still in this assay, the particulars now being: second compound 3.16 µM; first compound 1 µM; active compounds read low; spheroids with HUVEC and MSC.
In the case of `CC(C)n1c(=O)n(C)c2cnc3cc(F)c(-c4ccc(OCCCN5CCCCC5)nc4)cc3c21` + CN(C)c1ccc(Nc2c3ccc(NC(=O)CCN4CCCC4)cc3nc3cc(NC(=O)CCN4CCCC4)ccc23)cc1, the viability, T/C is 65.8%.

In the case of `CC1COCCN1c1cc(-c2ccnn2C)c2ccnc(-c3ccn[nH]3)c2n1` (configuration not stated) + CN(C)c1ccc(Nc2c3ccc(NC(=O)CCN4CCCC4)cc3nc3cc(NC(=O)CCN4CCCC4)ccc23)cc1, the viability, T/C is 21.3%.

As to `CC1COCCN1c1cc(C2(O)CC3CCC(C2)O3)c2cnn(-c3ccn[nH]3)c2n1` (configuration not stated) + CN(C)c1ccc(Nc2c3ccc(NC(=O)CCN4CCCC4)cc3nc3cc(NC(=O)CCN4CCCC4)ccc23)cc1, the viability, T/C was 19.9%.

As for `COc1ccc([C@@H](O)c2cc(-c3ncnc4cc(N5CCOCC5)ccc34)c(F)cc2Cl)nn1` + CN(C)c1ccc(Nc2c3ccc(NC(=O)CCN4CCCC4)cc3nc3cc(NC(=O)CCN4CCCC4)ccc23)cc1, the viability, T/C is 68.9%.

Still in this assay, the particulars now being: second compound 3.16 µM; first compound 3.16 µM; active compounds read low; spheroids with HUVEC and MSC.
For `CC(C)n1c(=O)n(C)c2cnc3cc(F)c(-c4ccc(OCCCN5CCCCC5)nc4)cc3c21` + CN(C)c1ccc(Nc2c3ccc(NC(=O)CCN4CCCC4)cc3nc3cc(NC(=O)CCN4CCCC4)ccc23)cc1, the viability, T/C was 72.5%.

Regarding `CC1COCCN1c1cc(-c2ccnn2C)c2ccnc(-c3ccn[nH]3)c2n1` (configuration not stated) + CN(C)c1ccc(Nc2c3ccc(NC(=O)CCN4CCCC4)cc3nc3cc(NC(=O)CCN4CCCC4)ccc23)cc1, the viability, T/C is 26.2%.

Consider `CC1COCCN1c1cc(C2(O)CC3CCC(C2)O3)c2cnn(-c3ccn[nH]3)c2n1` (configuration not stated) + CN(C)c1ccc(Nc2c3ccc(NC(=O)CCN4CCCC4)cc3nc3cc(NC(=O)CCN4CCCC4)ccc23)cc1, for which the viability, T/C is 22.4%.

As to `COc1ccc([C@@H](O)c2cc(-c3ncnc4cc(N5CCOCC5)ccc34)c(F)cc2Cl)nn1` + CN(C)c1ccc(Nc2c3ccc(NC(=O)CCN4CCCC4)cc3nc3cc(NC(=O)CCN4CCCC4)ccc23)cc1, the viability, T/C is 59.9%.

The same assay, now with this note: second compound 3.16 µM; first compound 10 µM; active compounds read low; spheroids with HUVEC and MSC.
For the compound `CC(C)n1c(=O)n(C)c2cnc3cc(F)c(-c4ccc(OCCCN5CCCCC5)nc4)cc3c21` + CN(C)c1ccc(Nc2c3ccc(NC(=O)CCN4CCCC4)cc3nc3cc(NC(=O)CCN4CCCC4)ccc23)cc1, the viability, T/C is 63.7%.

Regarding `CC1COCCN1c1cc(-c2ccnn2C)c2ccnc(-c3ccn[nH]3)c2n1` (configuration not stated) + CN(C)c1ccc(Nc2c3ccc(NC(=O)CCN4CCCC4)cc3nc3cc(NC(=O)CCN4CCCC4)ccc23)cc1, the viability, T/C is 27.1%.

`CC1COCCN1c1cc(C2(O)CC3CCC(C2)O3)c2cnn(-c3ccn[nH]3)c2n1` (configuration not stated) + CN(C)c1ccc(Nc2c3ccc(NC(=O)CCN4CCCC4)cc3nc3cc(NC(=O)CCN4CCCC4)ccc23)cc1: the viability, T/C is 14.9%.

In the case of `COc1ccc([C@@H](O)c2cc(-c3ncnc4cc(N5CCOCC5)ccc34)c(F)cc2Cl)nn1` + CN(C)c1ccc(Nc2c3ccc(NC(=O)CCN4CCCC4)cc3nc3cc(NC(=O)CCN4CCCC4)ccc23)cc1, the viability, T/C is 40.7%.

The assay is the same for the next values; noted with them: second compound 10 µM; first compound 0.0316 µM; active compounds read low; spheroids with HUVEC and MSC.
As to `CC(C)n1c(=O)n(C)c2cnc3cc(F)c(-c4ccc(OCCCN5CCCCC5)nc4)cc3c21` + CN(C)c1ccc(Nc2c3ccc(NC(=O)CCN4CCCC4)cc3nc3cc(NC(=O)CCN4CCCC4)ccc23)cc1, the viability, T/C was 76.9%.

As for `CC1COCCN1c1cc(-c2ccnn2C)c2ccnc(-c3ccn[nH]3)c2n1` (configuration not stated) + CN(C)c1ccc(Nc2c3ccc(NC(=O)CCN4CCCC4)cc3nc3cc(NC(=O)CCN4CCCC4)ccc23)cc1, the viability, T/C was 69.8%.

For `CC1COCCN1c1cc(C2(O)CC3CCC(C2)O3)c2cnn(-c3ccn[nH]3)c2n1` (configuration not stated) + CN(C)c1ccc(Nc2c3ccc(NC(=O)CCN4CCCC4)cc3nc3cc(NC(=O)CCN4CCCC4)ccc23)cc1, the viability, T/C is 65.7%.

Regarding `COc1ccc([C@@H](O)c2cc(-c3ncnc4cc(N5CCOCC5)ccc34)c(F)cc2Cl)nn1` + CN(C)c1ccc(Nc2c3ccc(NC(=O)CCN4CCCC4)cc3nc3cc(NC(=O)CCN4CCCC4)ccc23)cc1, the viability, T/C is 76.6%.

Staying with this assay, now noted: second compound 10 µM; first compound 0.1 µM; active compounds read low; spheroids with HUVEC and MSC.
As for `CC(C)n1c(=O)n(C)c2cnc3cc(F)c(-c4ccc(OCCCN5CCCCC5)nc4)cc3c21` + CN(C)c1ccc(Nc2c3ccc(NC(=O)CCN4CCCC4)cc3nc3cc(NC(=O)CCN4CCCC4)ccc23)cc1, the viability, T/C was 74.6%.

As to `CC1COCCN1c1cc(-c2ccnn2C)c2ccnc(-c3ccn[nH]3)c2n1` (configuration not stated) + CN(C)c1ccc(Nc2c3ccc(NC(=O)CCN4CCCC4)cc3nc3cc(NC(=O)CCN4CCCC4)ccc23)cc1, the viability, T/C is 45.5%.

With `CC1COCCN1c1cc(C2(O)CC3CCC(C2)O3)c2cnn(-c3ccn[nH]3)c2n1` (configuration not stated) + CN(C)c1ccc(Nc2c3ccc(NC(=O)CCN4CCCC4)cc3nc3cc(NC(=O)CCN4CCCC4)ccc23)cc1, the viability, T/C was 53%.

Take `COc1ccc([C@@H](O)c2cc(-c3ncnc4cc(N5CCOCC5)ccc34)c(F)cc2Cl)nn1` + CN(C)c1ccc(Nc2c3ccc(NC(=O)CCN4CCCC4)cc3nc3cc(NC(=O)CCN4CCCC4)ccc23)cc1: the viability, T/C was 68.2%.

Staying with this assay, now noted: second compound 10 µM; first compound 0.316 µM; active compounds read low; spheroids with HUVEC and MSC.
In the case of `CC(C)n1c(=O)n(C)c2cnc3cc(F)c(-c4ccc(OCCCN5CCCCC5)nc4)cc3c21` + CN(C)c1ccc(Nc2c3ccc(NC(=O)CCN4CCCC4)cc3nc3cc(NC(=O)CCN4CCCC4)ccc23)cc1, the viability, T/C is 69%.

For the compound `CC1COCCN1c1cc(-c2ccnn2C)c2ccnc(-c3ccn[nH]3)c2n1` (configuration not stated) + CN(C)c1ccc(Nc2c3ccc(NC(=O)CCN4CCCC4)cc3nc3cc(NC(=O)CCN4CCCC4)ccc23)cc1, the viability, T/C is 31.4%.

As for `CC1COCCN1c1cc(C2(O)CC3CCC(C2)O3)c2cnn(-c3ccn[nH]3)c2n1` (configuration not stated) + CN(C)c1ccc(Nc2c3ccc(NC(=O)CCN4CCCC4)cc3nc3cc(NC(=O)CCN4CCCC4)ccc23)cc1, the viability, T/C is 30.4%.

As for `COc1ccc([C@@H](O)c2cc(-c3ncnc4cc(N5CCOCC5)ccc34)c(F)cc2Cl)nn1` + CN(C)c1ccc(Nc2c3ccc(NC(=O)CCN4CCCC4)cc3nc3cc(NC(=O)CCN4CCCC4)ccc23)cc1, the viability, T/C was 81.9%.

The same assay, now with this note: second compound 10 µM; first compound 1 µM; active compounds read low; spheroids with HUVEC and MSC.
For the compound `CC(C)n1c(=O)n(C)c2cnc3cc(F)c(-c4ccc(OCCCN5CCCCC5)nc4)cc3c21` + CN(C)c1ccc(Nc2c3ccc(NC(=O)CCN4CCCC4)cc3nc3cc(NC(=O)CCN4CCCC4)ccc23)cc1, the viability, T/C was 61.4%.

Regarding `CC1COCCN1c1cc(-c2ccnn2C)c2ccnc(-c3ccn[nH]3)c2n1` (configuration not stated) + CN(C)c1ccc(Nc2c3ccc(NC(=O)CCN4CCCC4)cc3nc3cc(NC(=O)CCN4CCCC4)ccc23)cc1, the viability, T/C was 27.6%.

Turning to `CC1COCCN1c1cc(C2(O)CC3CCC(C2)O3)c2cnn(-c3ccn[nH]3)c2n1` (configuration not stated) + CN(C)c1ccc(Nc2c3ccc(NC(=O)CCN4CCCC4)cc3nc3cc(NC(=O)CCN4CCCC4)ccc23)cc1, the viability, T/C is 24.4%.

In the case of `COc1ccc([C@@H](O)c2cc(-c3ncnc4cc(N5CCOCC5)ccc34)c(F)cc2Cl)nn1` + CN(C)c1ccc(Nc2c3ccc(NC(=O)CCN4CCCC4)cc3nc3cc(NC(=O)CCN4CCCC4)ccc23)cc1, the viability, T/C is 61.4%.

The assay is the same for the next values; noted with them: second compound 10 µM; first compound 3.16 µM; active compounds read low; spheroids with HUVEC and MSC.
As for `CC(C)n1c(=O)n(C)c2cnc3cc(F)c(-c4ccc(OCCCN5CCCCC5)nc4)cc3c21` + CN(C)c1ccc(Nc2c3ccc(NC(=O)CCN4CCCC4)cc3nc3cc(NC(=O)CCN4CCCC4)ccc23)cc1, the viability, T/C is 61.8%.

Turning to `CC1COCCN1c1cc(-c2ccnn2C)c2ccnc(-c3ccn[nH]3)c2n1` (configuration not stated) + CN(C)c1ccc(Nc2c3ccc(NC(=O)CCN4CCCC4)cc3nc3cc(NC(=O)CCN4CCCC4)ccc23)cc1, the viability, T/C is 24.1%.

Turning to `CC1COCCN1c1cc(C2(O)CC3CCC(C2)O3)c2cnn(-c3ccn[nH]3)c2n1` (configuration not stated) + CN(C)c1ccc(Nc2c3ccc(NC(=O)CCN4CCCC4)cc3nc3cc(NC(=O)CCN4CCCC4)ccc23)cc1, the viability, T/C is 23%.

In the case of `COc1ccc([C@@H](O)c2cc(-c3ncnc4cc(N5CCOCC5)ccc34)c(F)cc2Cl)nn1` + CN(C)c1ccc(Nc2c3ccc(NC(=O)CCN4CCCC4)cc3nc3cc(NC(=O)CCN4CCCC4)ccc23)cc1, the viability, T/C is 50%.

The same assay, now with this note: second compound 10 µM; first compound 10 µM; active compounds read low; spheroids with HUVEC and MSC.
In the case of `CC(C)n1c(=O)n(C)c2cnc3cc(F)c(-c4ccc(OCCCN5CCCCC5)nc4)cc3c21` + CN(C)c1ccc(Nc2c3ccc(NC(=O)CCN4CCCC4)cc3nc3cc(NC(=O)CCN4CCCC4)ccc23)cc1, the viability, T/C was 34.1%.

For `CC1COCCN1c1cc(-c2ccnn2C)c2ccnc(-c3ccn[nH]3)c2n1` (configuration not stated) + CN(C)c1ccc(Nc2c3ccc(NC(=O)CCN4CCCC4)cc3nc3cc(NC(=O)CCN4CCCC4)ccc23)cc1, the viability, T/C is 27%.

`CC1COCCN1c1cc(C2(O)CC3CCC(C2)O3)c2cnn(-c3ccn[nH]3)c2n1` (configuration not stated) + CN(C)c1ccc(Nc2c3ccc(NC(=O)CCN4CCCC4)cc3nc3cc(NC(=O)CCN4CCCC4)ccc23)cc1: the viability, T/C was 11.2%.

On to `COc1ccc([C@@H](O)c2cc(-c3ncnc4cc(N5CCOCC5)ccc34)c(F)cc2Cl)nn1` + CN(C)c1ccc(Nc2c3ccc(NC(=O)CCN4CCCC4)cc3nc3cc(NC(=O)CCN4CCCC4)ccc23)cc1, for which the viability, T/C was 27.6%.
